# According to ChEMBL document CHEMBL1132861, “Synthesis, radiolabelling and biological characterization of (D)-7-iodo-N-(1-phosphonoethyl)-5-aminomethylquinoxaline-2,3-dione, a glycine-binding site antagonist of NMDA receptors” (Bioorg Med Chem Lett, 2000):
# pIC50: −log10 of the molar value.
# What was measured:
# [1] = biological target: Glutamate receptor ionotropic, NMDA 1 (Homo sapiens, UniProt Q05586); test: Compound was evaluated for its binding affinity for the glycine binding site on N-methyl-D-aspartate glutamate receptor by using [3H]MDL-105519 binding assay
# [2] = biological target: Glutamate receptor ionotropic kainate (Homo sapiens) (UniProt P39086+Q16478+Q16099+Q13002+Q13003); test: Inhibition of binding of [3H]kainate to kainate at 10 uM compound concentration; format: protein-complex assay
# [3] = system: Mus musculus; test: Effective dose of the intravenously administered compound, protecting the mice in the maximal electroshock test; format: functional; details: iv
# [4] = system: Mus musculus; test: Percent protection offered by the compound (10 mg/kg) in maximal electroshock test in mice, 60 min after intravenous administration; format: functional
# [5] = species: Mus musculus; test: Biodistribution of the injected compound in blood of female BALB/C mice for 0.5 hours; format: ADME, organism-based; details: in vivo
# [6] = species: Mus musculus; test: Biodistribution of the injected compound in blood of female BALB/C mice for 2.5 hours; format: ADME, organism-based; details: in vivo
# [7] = species: Mus musculus; test: Biodistribution of the injected compound in blood of female BALB/C mice for 5 hours; format: ADME, organism-based; details: in vivo
# [8] = species: Mus musculus; test: Biodistribution of the injected compound in bone of female BALB/C mice for 0.5 hours; format: ADME, organism-based, Bone element; details: in vivo
# [9] = species: Mus musculus; test: Biodistribution of the injected compound in bone of female BALB/C mice for 2.5 hours; format: ADME, organism-based, Bone element; details: in vivo
# [10] = species: Mus musculus; test: Biodistribution of the injected compound in bone of female BALB/C mice for 5 hours; format: ADME, organism-based, Bone element; details: in vivo
# [11] = species: Mus musculus; test: Biodistribution of the injected compound in brain of female BALB/C mice for 0.5 hours; format: ADME, organism-based; details: in vivo
# [12] = species: Mus musculus; test: Biodistribution of the injected compound in brain of female BALB/C mice for 2.5 hours; format: ADME, organism-based; details: in vivo
# [13] = species: Mus musculus; test: Biodistribution of the injected compound in brain of female BALB/C mice for 5 hours; format: ADME, organism-based; details: in vivo
# [14] = species: Mus musculus; test: Biodistribution of the injected compound in heart of female BALB/C mice for 0.5 hours; format: ADME, organism-based; details: in vivo
# [15] = species: Mus musculus; test: Biodistribution of the injected compound in heart of female BALB/C mice for 2.5 hours; format: ADME, organism-based; details: in vivo
# [16] = species: Mus musculus; test: Biodistribution of the injected compound in heart of female BALB/C mice for 5 hours; format: ADME, organism-based; details: in vivo
# [17] = species: Mus musculus; test: Biodistribution of the injected compound in intestines of female BALB/C mice for 0.5 hours; format: ADME, organism-based, Intestine; details: in vivo
# [18] = species: Mus musculus; test: Biodistribution of the injected compound in intestines of female BALB/C mice for 2.5 hours; format: ADME, organism-based, Intestine; details: in vivo
# [19] = species: Mus musculus; test: Biodistribution of the injected compound in intestines of female BALB/C mice for 5 hours; format: ADME, organism-based, Intestine; details: in vivo
# [20] = species: Mus musculus; test: Biodistribution of the injected compound in kidneys of female BALB/C mice for 0.5 hours; format: ADME, organism-based, Kidney; details: in vivo
# [21] = species: Mus musculus; test: Biodistribution of the injected compound in kidneys of female BALB/C mice for 2.5 hours; format: ADME, organism-based, Kidney; details: in vivo
# [22] = species: Mus musculus; test: Biodistribution of the injected compound in kidneys of female BALB/C mice for 5 hours; format: ADME, organism-based, Kidney; details: in vivo
# [23] = species: Mus musculus; test: Biodistribution of the injected compound in liver of female BALB/C mice for 0.5 hours; format: ADME, organism-based; details: in vivo
# [24] = species: Mus musculus; test: Biodistribution of the injected compound in liver of female BALB/C mice for 2.5 hours; format: ADME, organism-based; details: in vivo
# [25] = species: Mus musculus; test: Biodistribution of the injected compound in liver of female BALB/C mice for 5 hours; format: ADME, organism-based; details: in vivo
# [26] = species: Mus musculus; test: Biodistribution of the injected compound in lung of female BALB/C mice for 0.5 hours; format: ADME, organism-based; details: in vivo
# [27] = species: Mus musculus; test: Biodistribution of the injected compound in lung of female BALB/C mice for 2.5 hours; format: ADME, organism-based; details: in vivo
# [28] = species: Mus musculus; test: Biodistribution of the injected compound in lung of female BALB/C mice for 5 hours; format: ADME, organism-based; details: in vivo
# [29] = species: Mus musculus; test: Biodistribution of the injected compound in muscle of female BALB/C mice for 0.5 hours; format: ADME, organism-based, Muscle tissue; details: in vivo
# [30] = species: Mus musculus; test: Biodistribution of the injected compound in muscle of female BALB/C mice for 2.5 hours; format: ADME, organism-based, Muscle tissue; details: in vivo
# [31] = species: Mus musculus; test: Biodistribution of the injected compound in muscle of female BALB/C mice for 5 hours; format: ADME, organism-based, Muscle tissue; details: in vivo
# [32] = species: Mus musculus; test: Biodistribution of the injected compound in spleen of female BALB/C mice for 0.5 hours; format: ADME, organism-based; details: in vivo
# [33] = species: Mus musculus; test: Biodistribution of the injected compound in spleen of female BALB/C mice for 2.5 hours; format: ADME, organism-based; details: in vivo
# [34] = species: Mus musculus; test: Biodistribution of the injected compound in spleen of female BALB/C mice for 5 hours; format: ADME, organism-based; details: in vivo
# [35] = species: Mus musculus; test: Biodistribution of the injected compound in stomach of female BALB/C mice for 2.5 hours; format: ADME, organism-based; details: in vivo
# [36] = species: Mus musculus; test: Biodistribution of the injected compound in stomach of female BALB/C mice for 5 hours; format: ADME, organism-based; details: in vivo
# [37] = Octanol/water distribution coefficient at pH 3; format: physicochemical
# [38] = Octanol/water distribution coefficient at pH 4; format: physicochemical
# [39] = Octanol/water distribution coefficient at pH 4.8; format: physicochemical
# [40] = Octanol/water distribution coefficient at pH 5.5; format: physicochemical
# [41] = Octanol/water distribution coefficient at pH 6.5; format: physicochemical
# [42] = Octanol/water distribution coefficient at pH 7.4; format: physicochemical
# [43] = Octanol/water distribution coefficient at pH 7.5; format: physicochemical
# [44] = biological target: Glutamate receptor ionotropic AMPA (Homo sapiens, UniProt P42261+P42262+P42263+P48058); test: Compound has been evaluated for its binding affinity towards Ionotropic glutamate receptor AMPA by displacing the radioligand [3H]AMPA; format: protein-complex assay
# [45] = biological target: Glutamate [NMDA] receptor; test: Compound has been evaluated for its binding affinity towards N-methyl-D-aspartate glutamate receptor by displacing the radioligand [3H]CGP-39653; format: protein-complex assay
# [46] = biological target: Glutamate [NMDA] receptor; test: Compound has been evaluated for its binding affinity towards N-methyl-D-aspartate glutamate receptor by displacing the radioligand [3H]MK-801; format: protein-complex assay
# [47] = species: Mus musculus; test: Biodistribution of the injected compound in stomach of female BALB/C mice for 0.5 hours; format: ADME, organism-based; details: in vivo
# [48] = biological target: Glutamate receptor ionotropic kainate; test: Compound has been evaluated for its binding affinity towards kainate by displacing the radioligand [3H]kainate; format: protein-complex assay
smiles,measurement,setting,value
C[C@@H](NCc1cc(F)cc2[nH]c(=O)c(=O)[nH]c12)P(=O)(O)O,pIC50,[1],8.05
C[C@@H](NCc1cc(I)cc2nc(O)c(O)nc12)P(=O)(O)O,inhibition,[2],49%
same,ED50,[3],10 mg/kg
same,Protection,[4],20%
C[C@@H](NCc1cc(I)cc2[nH]c(=O)c(=O)[nH]c12)P(=O)(O)O,Injected dose/g tissue,[5],1.1%
same,Injected dose/g tissue,[6],0.54%
same,Injected dose/g tissue,[7],0.49%
same,Injected dose/g tissue,[8],1.46%
same,Injected dose/g tissue,[9],0.92%
same,Injected dose/g tissue,[10],0.78%
same,Injected dose/g tissue,[11],0.03%
same,Injected dose/g tissue,[12],0.01%
same,Injected dose/g tissue,[13],0.01%
same,Injected dose/g tissue,[14],1.34%
same,Injected dose/g tissue,[15],0.93%
same,Injected dose/g tissue,[16],0.82%
same,Injected dose/g tissue,[17],0.44%
same,Injected dose/g tissue,[18],0.22%
same,Injected dose/g tissue,[19],0.2%
same,Injected dose/g tissue,[20],6.68%
same,Injected dose/g tissue,[21],3.29%
same,Injected dose/g tissue,[22],2.98%
same,Injected dose/g tissue,[23],0.92%
same,Injected dose/g tissue,[24],0.49%
same,Injected dose/g tissue,[25],0.43%
same,Injected dose/g tissue,[26],0.96%
same,Injected dose/g tissue,[27],0.4%
same,Injected dose/g tissue,[28],0.38%
same,Injected dose/g tissue,[29],0.4%
same,Injected dose/g tissue,[30],0.21%
same,Injected dose/g tissue,[31],0.19%
same,Injected dose/g tissue,[32],0.46%
same,Injected dose/g tissue,[33],0.23%
same,Injected dose/g tissue,[34],0.21%
same,Injected dose/g tissue,[35],0.23%
same,Injected dose/g tissue,[36],0.22%
same,logD,[37],-0.8
same,logD,[38],-1.2
same,logD,[39],-1.5
same,logD,[40],-1.6
same,logD,[41],-1.7
same,logD,[42],-2.5
same,logD,[43],-1.8
same,pIC50,[44],6.47
same,pIC50,[45],< 5.00
same,pIC50,[46],< 5.00
same,Injected dose/g tissue,[47],0.58%
same,pIC50,[1],8.10
C[C@@H](NCc1cc(Cl)cc2nc(O)c(O)nc12)P(=O)(O)O,pIC50,[1],8.22
C[C@@H](NCc1cc(C#N)cc2[nH]c(=O)c(=O)[nH]c12)P(=O)(O)O,pIC50,[1],7.12
C[C@@H](NCc1cc(C(F)(F)F)cc2[nH]c(=O)c(=O)[nH]c12)P(=O)(O)O,pIC50,[1],8.10
C[C@@H](NCc1cc([N+](=O)[O-])cc2[nH]c(=O)c(=O)[nH]c12)[P+]([O-])(O)O,pIC50,[1],7.49
C[C@@H](NCc1cc(Br)cc2nc(O)c(O)nc12)P(=O)(O)O,pIC50,[44],5.52
same,pIC50,[48],5.57
same,ED50,[3],5 mg/kg
same,Protection,[4],60%
same,pIC50,[45],< 5.00
same,pIC50,[46],< 5.00
same,pIC50,[1],8.30
